“And” between values parts separate entries of the source, which are not always exact repeats. Identical values can stand only once. Numbered stars: 1 amine (or outer) side, 2 acyl side, 3 side chain; on linkers, the order of the positions; unused ones are H or OH. Bridge positions count the residues as written; N and C are the ends. Square brackets hold non-standard residues; d marks the D form. Peptide text beside a SMILES is read from it. I, II: the chains in the order shown. Hexamethylenediamine = C(CCCN[*:2])CCN[*:1]; Dip = N[C@H](C(=O)O)C(c1ccccc1)c1ccccc1; Chg = N[C@H](C(=O)O)C1CCCCC1; NMeA = CN[C@@H](C)C(=O)O

Broadly, the ΔTm is the change in melting temperature against a reference sample.

Test [1] concerns the target T1, Peregrin (Homo sapiens) (UniProt P55201).
T1 sequence (whole entry): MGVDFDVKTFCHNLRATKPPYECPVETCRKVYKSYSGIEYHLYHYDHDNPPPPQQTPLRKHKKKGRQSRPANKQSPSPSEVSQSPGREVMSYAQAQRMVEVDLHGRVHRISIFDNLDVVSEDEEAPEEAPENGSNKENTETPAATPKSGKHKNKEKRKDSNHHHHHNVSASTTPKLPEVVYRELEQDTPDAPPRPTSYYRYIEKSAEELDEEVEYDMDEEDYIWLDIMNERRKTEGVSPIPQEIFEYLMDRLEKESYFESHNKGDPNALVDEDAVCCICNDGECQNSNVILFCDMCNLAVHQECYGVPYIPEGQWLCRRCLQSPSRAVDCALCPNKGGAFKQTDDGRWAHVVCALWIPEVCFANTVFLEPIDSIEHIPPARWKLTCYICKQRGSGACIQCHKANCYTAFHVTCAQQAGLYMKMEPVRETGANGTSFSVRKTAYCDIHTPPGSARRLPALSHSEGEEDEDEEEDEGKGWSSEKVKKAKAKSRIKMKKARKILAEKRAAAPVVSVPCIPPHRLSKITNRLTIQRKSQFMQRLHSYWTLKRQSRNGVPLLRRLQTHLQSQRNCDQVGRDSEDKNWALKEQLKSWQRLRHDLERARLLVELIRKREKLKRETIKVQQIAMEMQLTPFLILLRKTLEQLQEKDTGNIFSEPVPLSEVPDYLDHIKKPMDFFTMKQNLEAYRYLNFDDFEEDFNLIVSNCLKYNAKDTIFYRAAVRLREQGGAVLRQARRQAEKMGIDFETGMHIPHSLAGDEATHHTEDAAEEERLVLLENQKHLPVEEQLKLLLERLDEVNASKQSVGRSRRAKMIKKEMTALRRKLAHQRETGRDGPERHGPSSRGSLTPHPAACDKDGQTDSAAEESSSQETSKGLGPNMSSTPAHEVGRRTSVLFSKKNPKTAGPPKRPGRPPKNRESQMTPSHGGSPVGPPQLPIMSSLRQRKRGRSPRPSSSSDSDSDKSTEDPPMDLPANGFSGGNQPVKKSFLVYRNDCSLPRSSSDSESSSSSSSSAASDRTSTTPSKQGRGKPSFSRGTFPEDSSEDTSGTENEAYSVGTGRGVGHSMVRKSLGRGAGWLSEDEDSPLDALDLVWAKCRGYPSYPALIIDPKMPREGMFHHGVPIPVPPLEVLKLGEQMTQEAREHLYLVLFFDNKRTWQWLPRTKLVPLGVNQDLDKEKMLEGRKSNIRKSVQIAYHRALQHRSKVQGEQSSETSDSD
As to conditions: Compound concentration 20.0 uM, Protein concentration 2.0 uM, Result type QC Liability.

Test [2] addresses Fibroblast growth factor receptor 3 (Homo sapiens) (UniProt P22607). As to conditions: Compound concentration 20.0 uM, Protein concentration 2.0 uM, Result type QC Liability.
Description: Thermal Shift Assay. Domain: start/stop: P449-E759

Sequence of Fibroblast growth factor receptor 3 (Homo sapiens) (P22607 23-806 limits assumed): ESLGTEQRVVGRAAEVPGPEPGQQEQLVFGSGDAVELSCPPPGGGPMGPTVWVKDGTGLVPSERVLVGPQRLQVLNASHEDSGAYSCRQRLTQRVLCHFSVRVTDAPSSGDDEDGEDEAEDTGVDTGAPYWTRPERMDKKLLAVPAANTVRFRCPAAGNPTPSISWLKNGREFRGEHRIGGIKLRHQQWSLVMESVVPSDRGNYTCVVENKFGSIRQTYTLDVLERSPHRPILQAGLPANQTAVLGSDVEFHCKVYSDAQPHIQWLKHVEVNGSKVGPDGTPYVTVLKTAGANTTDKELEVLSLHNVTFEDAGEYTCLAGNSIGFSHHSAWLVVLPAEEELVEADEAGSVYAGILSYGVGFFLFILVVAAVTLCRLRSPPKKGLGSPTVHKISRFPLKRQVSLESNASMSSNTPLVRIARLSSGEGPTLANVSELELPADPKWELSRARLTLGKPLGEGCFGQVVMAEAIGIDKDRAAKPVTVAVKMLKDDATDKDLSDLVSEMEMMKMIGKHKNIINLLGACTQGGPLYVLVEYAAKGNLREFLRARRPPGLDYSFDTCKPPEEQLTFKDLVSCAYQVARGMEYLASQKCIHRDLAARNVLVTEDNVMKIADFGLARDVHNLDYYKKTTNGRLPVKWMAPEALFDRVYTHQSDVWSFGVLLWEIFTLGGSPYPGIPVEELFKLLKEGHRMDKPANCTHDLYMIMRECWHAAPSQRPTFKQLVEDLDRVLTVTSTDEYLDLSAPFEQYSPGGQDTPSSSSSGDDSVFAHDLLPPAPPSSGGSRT

In the case of `C[C@@H]1CC[C@@]2(OC1)O[C@H]1[C@@H](O)[C@H]3[C@@H]4CC[C@H]5C[C@@H](O[C@@H]6O[C@H](CO)[C@H](O[C@@H]7O[C@H](CO)C(O)[C@H](O[C@@H]8OC[C@@H](O)[C@H](O)[C@H]8O)[C@H]7O[C@@H]7O[C@H](CO)[C@H](O)[C@H](O[C@@H]8O[C@H](CO)[C@@H](O)[C@H](O)[C@H]8O)[C@H]7O)[C@H](O)[C@H]6O)[C@H](O)C[C@]5(C)[C@H]4CC[C@]3(C)[C@H]1[C@@H]2C` (stereo not given in full), the thermal shift (ΔTm) was -1.35 °C in test [1] and 0.72 °C in test [2].

Take `CCn1c(CNC(=O)c2nc(Cl)cnc2N)[n+](CC)c2ccc(C(=O)N(C)CCN(C)C)cc21`: the ΔTm is -1.87 °C in test [1] and 0.5 °C in test [2].

Take `C[C@H](CCC(=O)O)[C@H]1CC[C@H]2[C@@H]3[C@@H](O)C[C@@H]4C[C@H](O)CC[C@]4(C)[C@H]3CC[C@]12C`: the shift in melting temperature (ΔTm) in test [1] is -1.31 °C; in test [2], 0.96 °C.

Take `CCOCCn1cc(C(=O)Nc2ccc(-n3nc(-c4cccnc4)cc3C(F)(F)F)cn2)ccc1=O`: the ΔTm is -3.33 °C in test [1] and 0.41 °C in test [2].

Regarding `CS(=O)(=O)c1ccc(-c2cnc(N)c(C(=O)Nc3ccccc3)n2)cc1`, the thermal shift (ΔTm) in test [1] was -1.36 °C; in test [2], 1.51 °C.

As for `CN[C@@H](C)C(=O)N[C@H](C(=O)N1CCC[C@H]1C(=O)N[C@H](C(=O)NCCCCCCNC(=O)[C@@H](NC(=O)[C@@H]1CCCN1C(=O)[C@@H](NC(=O)[C@H](C)NC)C1CCCCC1)C(c1ccccc1)c1ccccc1)C(c1ccccc1)c1ccccc1)C1CCCCC1` (I: H-[NMeA][Chg]P[Dip] / II: H-[NMeA][Chg]P[Dip]; linker I:C-II:C via Hexamethylenediamine), the thermal shift (ΔTm) was -2.83 °C in test [1] and 0.66 °C in test [2].

As to `COCCc1ccc(-c2c(C)nc3c(N4CCOCC4)ccnn23)cn1`, the ΔTm was -2.19 °C in test [1] and 1.27 °C in test [2].

`COC1(C#Cc2ccc(Cl)c(-c3ncc4c(n3)-c3sc(NC(C)=O)nc3CC4)c2)CCN(C)CC1`: the values for the ΔTm in test [1] and in test [2] were -1.7 °C and 0.77 °C, respectively.

Turning to `C/C(=C\C(=O)Nc1ccccc1C(=O)O)c1ccc2ccccc2c1`, the thermal shift (ΔTm) in test [1] was -1.56 °C; in test [2] it was 1.14 °C.

`COc1ccc(S(=O)(=O)N2CCOCC2)cc1Nc1ccc2c(n1)N(C1CCN(C)CC1)[C@H](C)C(=O)N2C`: the shift in melting temperature (ΔTm) was 1.52 °C in test [1] and 0.38 °C in test [2].

As to `CC(=O)c1ccc2c(c1)/C(=C(/NC1CCN(C)CC1)c1ccc3c(c1)OCO3)C(=O)N2`, the ΔTm is -1.44 °C in test [1] and 0.39 °C in test [2].

Regarding `Cc1cc(Cl)ccc1S(=O)(=O)NC[C@H]1C2CCC(CC2)[C@@H]1/C=C\CCCC(=O)O`, the ΔTm is -2.88 °C in test [1] and 0.12 °C in test [2].

Consider `CC[C@H](Nc1c(C#N)c(-c2ccc(-c3cccc(C)c3F)cc2)nc2cnccc12)C(=O)O`, for which the figures for the ΔTm in test [1] and in test [2] were -1.54 °C and -0.1 °C, respectively.

As for `Cc1cc(C)nc(Nc2ncc(C(=O)NCCc3c(C)[nH]c4ccccc34)cn2)c1`, the ΔTm is -2.14 °C in test [1] and 0.85 °C in test [2].

Regarding `CCCCC/C=C/C=C1/C(=O)C=C[C@@H]1C/C=C\CCCC(=O)O`, the values for the ΔTm in test [1] and in test [2] were -3.72 °C and 0.72 °C, respectively.

Consider `CN(C)C/C=C/C(=O)Nc1cccc(S(=O)(=O)N2CCC(NC(=O)c3n[nH]cc3NC(=O)c3c(Cl)cc(Cl)cc3Cl)CC2)c1`, for which the thermal shift (ΔTm) was -0.81 °C in test [1] and 6.8 °C in test [2].

`O=C(O)Cc1cc(I)c(Oc2ccc(O)c(I)c2)c(I)c1`: the results for the ΔTm in test [1] and in test [2] were -2.62 °C and -0.28 °C, respectively.

With `COc1cc(-c2nn([C@H]3CC[C@H](N4CCN(C(C)=O)CC4)CC3)c3ncnc(N)c23)ccc1NC(=O)c1cc2ccccc2n1C`, the ΔTm in test [1] was -2.71 °C; in test [2], 0.83 °C.

On to `CNC(=O)c1ccc2c(c1)NC(=O)/C2=C(\Nc1ccc(CN2CCCCC2)cc1)c1ccccc1`, for which the ΔTm in test [1] is -0.66 °C; in test [2], 3.97 °C.

Consider `O=C(Nc1ccc(OC(F)(F)Cl)cc1)c1cnc(N2CC[C@@H](O)C2)c(-c2cc[nH]n2)c1`, for which the results for the ΔTm in test [1] and in test [2] were -3.77 °C and 0.66 °C, respectively.

On to `COc1cc2nc(C)nc(N[C@H](C)c3cc(N)cc(C(F)(F)F)c3)c2cc1O[C@H]1CCOC1`, for which the shift in melting temperature (ΔTm) in test [1] is -3.07 °C; in test [2], 0.66 °C.

Regarding `C=CC(=O)Nc1cccc(C)c1Nc1ncc2cc(-c3c(Cl)c(OC)cc(OC)c3Cl)ccc2n1`, the shift in melting temperature (ΔTm) is -0.73 °C in test [1] and 1.71 °C in test [2].

In the case of `COc1c(-c2cn(C3CCC(=O)NC3=O)nn2)csc1C(=O)N1CCCC1` (stereo not given), the ΔTm in test [1] was -1.52 °C; in test [2] it was 0.59 °C.

As for `O=S(=O)(Nc1ccc(C(O)(C(F)(F)F)C(F)(F)F)cc1)c1cccs1`, the ΔTm in test [1] was -1.54 °C; in test [2] it was 0.59 °C.

On to `COC(=O)Nc1nc2c(s1)-c1c(c(-c3cccnc3)nn1-c1ccc(C3(N(C)C)CC3)cc1)CC2`, for which the shift in melting temperature (ΔTm) was -1.72 °C in test [1] and 1.4 °C in test [2].

In the case of `COc1cc(N(C)c2ccnc3ccc(C(F)(F)F)cc23)cc(OC)c1OC`, the ΔTm was -1.93 °C in test [1] and 0.76 °C in test [2].

As to `COc1cc(C(=O)NC2CCN(C)CC2)ccc1Nc1ncc2c(n1)N(C1CCCC1)CC(F)(F)C(=O)N2C`, the shift in melting temperature (ΔTm) in test [1] came to 1.14 °C; in test [2], 0.42 °C.

Take `Fc1ccc(-c2c3cccc(C(F)(F)F)c3nn2Cc2ccc(F)cc2Cl)cc1`: the values for the ΔTm in test [1] and in test [2] were -2.25 °C and 0.67 °C, respectively.

Consider `CC(C)(C)c1cnc(CSc2cnc(NC(=O)C3CCN(CC(=O)NCCOCCOCCOCCNc4cccc5c4C(=O)N(C4CCC(=O)NC4=O)C5=O)CC3)s2)o1` (stereo not given), for which the values for the ΔTm in test [1] and in test [2] were -0.35 °C and 0.29 °C, respectively.

Regarding `CCc1cnn2c(NCc3ccc[n+]([O-])c3)cc(N3CCCCC3CCO)nc12` (stereo not given), the shift in melting temperature (ΔTm) in test [1] was -1.7 °C; in test [2], 1.49 °C.

Consider `O=C(O)CCCCN(CCc1cc(F)ccc1OCc1ccc(-c2ccc(C(F)(F)F)cc2)cc1)Cc1ccc(C(=O)O)cc1`, for which the thermal shift (ΔTm) in test [1] was -3.03 °C; in test [2], -0.36 °C.

Take `C=CC(=O)Nc1cccc(C(=O)Nc2ccc(Nc3cc(-c4c(-c5ccc(F)cc5)nc(SC)n4C)ccn3)cc2)c1`: the ΔTm in test [1] was 0.18 °C; in test [2] it was -0.43 °C.

In the case of `COc1cccc(-c2c(C)c(Cc3c(F)cccc3C(F)(F)F)c3n(c2=O)[C@@H]([C@@H](N)c2ccccc2)CS3)c1F`, the values for the shift in melting temperature (ΔTm) in test [1] and in test [2] were -4.1 °C and -2.84 °C, respectively.

For the compound `COc1ccc(CSc2nnc(-c3ccc4ncsc4c3)o2)cc1C(F)(F)F`, the shift in melting temperature (ΔTm) is -1.83 °C in test [1] and -7.8 °C in test [2].

`CC[C@@H]1C(=O)N(C)c2cnc(Nc3ccc(C(=O)NC4CCN(C)CC4)cc3OC)nc2N1C1CCCC1`: the ΔTm in test [1] turned out to be 1.16 °C; in test [2], 0.55 °C.

Regarding `COc1cc2nc(C)nc(NC3(c4ccccc4)CC3)c2cc1OC`, the ΔTm is -3.11 °C in test [1] and 0.4 °C in test [2].

Consider `O=C(O)c1ccnc(N2CC(O)(c3ccc(OCc4c(-c5c(Cl)cccc5Cl)noc4C4CC4)cc3Cl)C2)c1`, for which the ΔTm in test [1] was -1.75 °C; in test [2], 0.03 °C.

As for `CCS(=O)(=O)c1cc2cc(C[C@@](O)(CC(C)(C)c3ccc(F)cc3C(N)=O)C(F)(F)F)[nH]c2cn1`, the ΔTm is -2.1 °C and -0.15 °C in test [1]; 0.69 °C and 0.88 °C in test [2].

Regarding `CC(=O)c1c(C)c2cnc(Nc3ccc(N4CCN(CCOCCOCCOCCNC(=O)COc5cccc6c5C(=O)N(C5CCC(=O)NC5=O)C6=O)CC4)cn3)nc2n(C2CCCC2)c1=O` (stereo not given), the figures for the ΔTm in test [1] and in test [2] were -1.99 °C and 0.48 °C, respectively.

Consider `CC[C@H](CC(=O)O)n1c(=O)c2ncccc2n(Cc2cn(C)c3cc(C)cc(C)c23)c1=O`, for which the ΔTm is -2.28 °C and -0.95 °C in test [1]; 0.98 °C and 0.62 °C in test [2].

On to `CC(C(=O)Nc1cc(C#N)ccc1CCCC(=O)O)c1ccc(F)c2ccccc12` (stereo not given), for which the values for the thermal shift (ΔTm) in test [1] and in test [2] were -2.92 °C and 0.51 °C, respectively.

As for `CCS(=O)(=O)c1cc2cc(C[C@](O)(CC(C)(C)c3ccc(F)cc3C(N)=O)C(F)(F)F)[nH]c2cn1`, the shift in melting temperature (ΔTm) in test [1] was -1.64 °C; in test [2] it was 0.43 °C.

`OCC1OC(n2cnc3cc(Cl)c(Cl)cc32)C(O)C1O` (stereo not given): the ΔTm is -1.16 °C in test [1] and 0.39 °C in test [2].

On to `FC(F)c1cncc(-c2ccc3ncc4nnc(C5=CCCOCC5)n4c3c2)c1`, for which the shift in melting temperature (ΔTm) in test [1] is -2.16 °C; in test [2] it was 0.51 °C.

Consider `Cn1cc(Nc2nccc(N3CC4CCC(C3)N4C(=O)[C@@H]3CC3(F)F)n2)cn1`, for which the figures for the shift in melting temperature (ΔTm) in test [1] and in test [2] were -0.71 °C and 2.58 °C, respectively.

The values above are taken from ChEMBL document CHEMBL5308504, “Tm Shift (DSF) assay results for EUbOPEN Chemogenomics Library” (2023).
